# Assay results reported in article PMC11024016 (Pharmaceutical Research, 2024).
# Assays:
# [1] = Pharmacokinetics of unencapsulated topotecan in plasma, tumor and BM-ISF of ES-2 tumor bearing mice; assay type: in vivo, BALB/c nude mice; settings: for AUC(0-inf) / Cmax / MRT / half-life: BALB/c nude, mouse, iv
# Method: (§1) Sucrose/histidine buffer and saline (Otsuka Pharmaceutical Factory, Tokushima, Japan) were used as the diluent for FF-10850 and TPT, respectively. After blood sample collection, mice were euthanized at the corresponding time points, and tumor and bone marrow tissues were collected. Plasma was obtained by centrifuging the blood samples at 800 × g for 15 min at 4 °C. Tumor tissues, placed on ice, were minced into fine pieces with scissors. Bone marrow tissues were harvested from the femur and tibia. After cutting the ends, the bones were placed in a microtube and centrifuged at 1,200 × g for 1 min at 4 °C. Unencapsulated topotecan was immediately separated from the plasma and tissue samples and processed.
# For the separation of unencapsulated topotecan in plasma, plasma samples diluted with PBS were ultracentrifuged at 200,000 × g for 1 h at 4 °C to precipitate the liposomes. The supernatants were collected as samples for measuring unencapsulated topotecan in plasma. To separate unencapsulated topotecan in tumor tissues, the tissues were minced as described and homogenized in PBS containing topotecan-d6 as an internal standard (125 mg tissue/mL PBS), with zirconia balls using Micro Smash MS-100R (Tomy Seiko, Tokyo, Japan). The homogenate was then ultracentrifuged at 200,000 × g for 1 h at 4 °C, and the supernatants were collected as samples for measuring unencapsulated topotecan in the tumor tissue. For the separation of unencapsulated topotecan in BM-ISF, a bone marrow tissue suspension was prepared by adding PBS containing topoteacan-d6 to the tissue (25 mg tissue/mL PBS) and suspending it by pipetting. After removing cellular components from the suspension by centrifugation at 1,200 × g for 3 min at 4 °C, the supernatant was collected as the BM-ISF sample. These samples were ultracentrifuged at 200,000 × g for 1 h at 4 °C, and the supernatants were collected to measure unencapsulated topotecan in the BM-ISF.
# (§2) To prepare the samples, methanol with 0.1% formic acid plus topotecan-d6 was added to plasma samples, while methanol with 0.1% formic acid was used for tumor and BM-ISF samples. The samples were thoroughly mixed and centrifuged at 11,300 × g for 3 min. The supernatants were added to an equal volume of water with 0.1% formic acid, and the mixture was injected into the liquid chromatographic–triple quadrupole mass spectrometric (LC–MS/MS) system. The ultra-performance liquid chromatography (UPLC) conditions for topotecan analysis were as follows: system, ACQUITY UPLC (Waters, Milford, MA); column, ACQUITY UPLC BEH C18 Column (1.7 µm, 2.1 mm × 50 mm, Waters); mobile phase A, 0.1% formic acid; mobile phase B, methanol with 0.1% formic acid, gradient (initial to 2.0 min, linear increase from 20 to 50% of B; 2.0 to 3.0 min, 95% B, and 3.0 to 4.0 min, 20% B); flow rate, 0.4 mL/min; column temperature, 40 °C. A Triple Quad 5500 (AB Sciex, Framingham, MA) mass spectrometer equipped with Analyst software (AB Sciex) and positive ion electrospray ionization in a multiple reaction monitoring (MRM) mode were used. Quantification was performed using MRM with the transitions of m/z at 422.0 → 377.1 for topotecan and 428.1 → 377.1 for topotecan-d6.
# (§3) Pharmacokinetic parameters, including half-life (T1/2), initial concentration at t = 0 (C0), the area under the concentration versus time curves from 0 to infinity (AUCinf), clearance (CL), mean residence time (MRT), and the volume of distribution (Vd) of total and unencapsulated topotecan in plasma, tumor tissue, and BM-ISF were analyzed using noncompartmental analysis with Phoenix WinNonlin version 8.2 pharmacokinetic software (Certara, Princeton, NJ). The AUCs were calculated using the linear up/log down rule.
# [2] = Maximum tolerated dose of TPT in mice; settings: mouse, in vivo, intravenous, 5 consecutive days, authors' previous study (data not shown)
# [3] = system: Ser139-phosphorylated human H2AX (γhH2AX) in the tumor; assay: DNA damage in tumor (γH2AX) of ES-2 tumor-bearing mice; assay type: in vivo; settings: TPT 2 mg/kg/day for 5 consecutive days
# Method: Mice in the TPT group were euthanized at 3 and 24 h after each dosing and 3, 5, and 7 days after the last dosing (n = 3). Samples were also harvested at 0.5 h after the first and last TPT dose (n = 3). Mice in the vehicle control group were administered sucrose/histidine buffer intravenously and were euthanized at 3 h, 3, 7, and 11 days post-dosing (n = 2 or 3). The levels of Ser139-phosphorylated human H2AX (γhH2AX) and total hH2AX in the tumor, as well as Ser139-phosphorylated mouse H2AX (γmH2AX) and total mH2AX in mouse bone marrow, were quantified using a previously established method.
# [4] = Pharmacokinetics of total topotecan in plasma, tumor and BM-ISF of ES-2 tumor bearing mice; assay type: in vivo, BALB/c nude mice; settings: single i.v. 2 mg/kg
# Method: as §1, §2, §3
# [5] = unencapsulated topotecan, BM-ISF, single i.v. 2 mg/kg, ES-2 tumor bearing mice
# [6] = unencapsulated topotecan, plasma, single i.v. 2 mg/kg, ES-2 tumor bearing mice
# [7] = unencapsulated topotecan, tumor, single i.v. 2 mg/kg, ES-2 tumor bearing mice
# [8] = BALB/c nude, mouse, BM-ISF (bone marrow interstitial fluid), iv, BM-ISF, ES-2 tumor bearing mice
# [9] = BALB/c nude, mouse, iv, plasma, ES-2 tumor bearing mice
# [10] = BALB/c nude, mouse, iv, tumor, ES-2 tumor bearing mice
smiles,measurement,setting,value
"CC[C@@]1(O)C(=O)OCc2c1cc1n(c2=O)Cc2cc3c(CN(C)C)c(O)ccc3nc2-1 [TPT, Topotecan]",AUC(0-inf),[1]; [5],822 ng·h/mL
same,Cmax,[1]; [5],1700 ng/mL
same,MRT,[1]; [5],36.4 min
same,half-life,[1]; [5],43.7 min
same,AUC(0-inf),[1]; [6],97.3 ng·h/mL
same,Cmax,[1]; [6],198 ng/mL
same,MRT,[1]; [6],34.6 min
same,half-life,[1]; [6],26.3 min
same,Cmax,[1]; [7],646 ng/g
same,MRT,[1]; [7],62.4 min
same,half-life,[1]; [7],58.3 min
same,difference between total and unencapsulated topotecan AUCs,[1]; in plasma and each tissue,≤ 1.5 fold
same,AUCinf ratio (Tumor/BM-ISF),"[1]; unencapsulated topotecan, single i.v. 2 mg/kg, ES-2 tumor bearing mice",0.833
same,AUCinf,[1]; [7],684 ng∙h/g tissue
same,MTD at 5 days,[2],2 mg/kg/day
same,human γH2AX levels in the tumor (DNA damage),[3]; FF-10850 single i.v. 2 mg/kg,comparable DNA damage
same,time γH2AX levels remained elevated in tumor after each dose,[3],at least 24 h
same,AUC(0-inf),[4]; [8],862 ng·h/mL
same,Cmax,[4]; [8],1710 ng/mL
same,MRT,[4]; [8],39.5 min
same,half-life,"[4]; BALB/c nude, mouse, iv, BM-ISF (bone marrow interstitial fluid), ES-2 tumor bearing mice",41.4 min
same,AUC(0-inf),[4]; [9],140 ng·h/mL
same,C0,[4]; [9],406 ng/mL
same,MRT,[4]; [9],23.3 min
same,Vd,[4]; [9],5.87 L/kg
same,clearance,[4]; [9],238 mL/min/kg
same,half-life,[4]; [9],23.9 min
same,Cmax,[4]; [10],546 ng/g
same,MRT,[4]; [10],61.2 min
same,half-life,[4]; [10],55.7 min
same,AUCinf in BM-ISF relative to that in plasma,[4],6 times
same,AUCinf ratio (Tumor/BM-ISF),[4]; ES-2 tumor bearing mice,0.675
same,AUCinf,"[4]; tumor, ES-2 tumor bearing mice",582 ng∙h/g tissue
